{"source": "patent US7439372B2", "about": "“Therapeutic compounds” (Allergan, Inc., priority 2006, dated 2008)", "key": {"EP4 receptors": {"biological_target": "T1, EP4 receptors (Homo sapiens, UniProt P35408)", "T1 construct": "expressed in transfected cells; host or cells: HEK-293", "T1 sequence (P35408 whole entry)": "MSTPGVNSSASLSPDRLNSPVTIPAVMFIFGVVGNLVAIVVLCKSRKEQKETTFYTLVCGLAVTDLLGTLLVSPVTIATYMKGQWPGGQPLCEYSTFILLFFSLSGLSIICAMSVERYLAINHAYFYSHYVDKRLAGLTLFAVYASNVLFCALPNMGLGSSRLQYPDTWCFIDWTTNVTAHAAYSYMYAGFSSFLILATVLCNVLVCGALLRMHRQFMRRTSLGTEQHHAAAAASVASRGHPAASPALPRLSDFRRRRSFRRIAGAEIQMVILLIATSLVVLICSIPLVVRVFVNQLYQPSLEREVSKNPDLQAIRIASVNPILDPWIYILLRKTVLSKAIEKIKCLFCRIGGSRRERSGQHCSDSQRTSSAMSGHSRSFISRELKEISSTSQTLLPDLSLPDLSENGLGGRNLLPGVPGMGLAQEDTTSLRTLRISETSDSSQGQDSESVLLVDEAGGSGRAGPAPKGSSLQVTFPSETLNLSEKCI", "test": "Radioligand binding, [3H]PGE2, HEK-293 cells stably expressing EP4 receptors", "details": "[3H]PGE2 competition", "method": "HEK-293 cells stably expressing the human or feline FP receptor, or EP1, EP2, or EP4 receptors were washed with TME buffer, scraped from the bottom of the flasks, and homogenized for 30 sec using a Brinkman PT 10/35 polytron. TME buffer was added to achieve a final 40 ml volume in the centrifuge tubes (the composition of TME is 100 mM TRIS base, 20 mM MgCl2, […]; 10N HCl is added to achieve a pH of 7.4).\nThe cell homogenate was centrifuged at 19000 r.p.m. for 20 min at 4° C. using a Beckman Ti-60 rotor. The resultant pellet was resuspended in TME buffer to give a final 1 mg/ml protein concentration, as determined by Biorad assay. Radioligand binding competition assays vs. [^3H-]17-phenyl PGF2α (5 nM) were performed in a 100 μl volume for 60 min. Binding reactions were started by adding plasma membrane fraction. The reaction was terminated by the addition of 4 ml ice-cold TRIS-HCl buffer and rapid filtration through glass fiber GF/B filters using a Brandel cell harvester. The filters were washed 3 times with ice-cold buffer and oven dried for one hour.\n[^3H-]PGE2 (specific activity 180 Ci mmol) was used as the radioligand for EP receptors. [^3H]17-phenyl PGF2α was employed for FP receptor binding studies. Binding studies employing EP1, EP2, EP4 and FP receptors were performed in duplicate in at least three separate experiments. A 200 μl assay volume was used. Incubations were for 60 min at 25° C. and were terminated by the addition of 4 ml of ice-cold 50 mM TRIS-HCl, followed by rapid filtration through Whatman GF/B filters and three additional 4 ml washes in a cell harvester (Brandel). Competition studies were performed using a final concentration of 5 nM [^3H]-PGE2, or 5 nM [^3H] 17-phenyl PGF2α and non-specific binding determined with 10^−5M of unlabeled PGE2, or 17-phenyl PGF2α, according to receptor subtype studied."}, "hEP3A/Gqi5": {"biological_target": "T2, hEP3A/Gqi5 (Homo sapiens, UniProt P43115)", "T2 construct": "expressed in transfected cells; host or cells: HEK-293(EBNA)", "T2 sequence (P43115 1-390)": "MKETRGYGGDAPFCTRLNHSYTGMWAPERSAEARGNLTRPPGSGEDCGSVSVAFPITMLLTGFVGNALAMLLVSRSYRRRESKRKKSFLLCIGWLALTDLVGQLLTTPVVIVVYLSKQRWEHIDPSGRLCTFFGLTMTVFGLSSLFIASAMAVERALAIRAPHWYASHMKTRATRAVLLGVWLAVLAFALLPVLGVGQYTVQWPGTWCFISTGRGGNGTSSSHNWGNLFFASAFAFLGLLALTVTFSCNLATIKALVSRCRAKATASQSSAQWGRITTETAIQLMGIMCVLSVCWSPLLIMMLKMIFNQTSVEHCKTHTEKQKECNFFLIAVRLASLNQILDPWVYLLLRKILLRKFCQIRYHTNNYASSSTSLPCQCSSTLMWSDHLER", "test": "FLIPR calcium signal, HEK-293(EBNA) cells expressing hEP3A/Gqi5", "assay_type": "cell-based", "details": "for EC50: read-out: Ca2+ Signal-EC50(nM) EP3", "method": "HEK-293(EBNA) cells, stably expressing one type or subtype of recombinant human prostaglandin receptors (prostaglandin receptors expressed: hDP/Gqs5; hEP1; hEP2/Gqs5; hEP3A/Gqi5; hEP4/Gqs5; hFP; hIP; hTP), were cultured in 100 mm culture dishes in high-glucose DMEM medium containing 10% fetal bovine serum, 2 mM l-glutamine, 250 µg/ml geneticin (G418) and 200 μg/ml hygromycin B as selection markers, and 100 units/ml penicillin G, 100 µg/ml streptomycin and 0.25 μg/ml amphotericin B.\nCells were seeded at a density of 5×10^4 cells per well in Biocoat® Poly-D-lysine-coated black-wall, clear-bottom 96-well plates (Becton-Dickinson) and allowed to attach overnight in an incubator at 37° C. Cells were then washed two times with HBSS-HEPES buffer (Hanks Balanced Salt Solution without bicarbonate and phenol red, 20 mM HEPES, pH 7.4) using a Denley Cellwash plate washer (Labsystems). After 45 minutes of dye-loading in the dark, using the calcium-sensitive dye Fluo-4 […] at a final concentration of 2 μM, plates were washed four times with HBSS-HEPES buffer to remove excess dye leaving 100 μl in each well. Plates were re-equilibrated to 37° C. for a few minutes.\nCells were excited with an Argon laser at 488 nm, and emission was measured through a 510-570 nm bandwidth emission filter (FLIPR™, Molecular Devices, Sunnyvale, Calif.). Drug solution was added in a 50 µl volume to each well to give the desired final concentration. The peak increase in fluorescence intensity was recorded for each well. On each plate, four wells each served as negative (HBSS-HEPES buffer) and positive controls (standard agonists: BW245C (hDP); PGE2 (hEP1; hEP2/Gqs5; hEP3A/Gqi5; hEP4/Gqs5); PGF2α (hFP); carbacyclin (hIP); U-46619 (hTP), depending on receptor). The peak fluorescence change in each drug-containing well was then expressed relative to the controls.\nCompounds were tested in a high-throughput (HTS) or concentration-response (CoRe) format. In the HTS format, forty-four compounds per plate were examined in duplicates at a concentration of 10^−5 M. To generate concentration-response curves, four compounds per plate were tested in duplicates in a concentration range between 10^−5 and 10^−11 M. The duplicate values were averaged. In either, HTS or CoRe format each compound was tested on at least 3 separate plates using cells from different passages to give an n≧3."}}, "data": [{"smiles": "CCCCCC(O)c1ccc([C@@H]2[C@@H](C/C=C\\CCCC(=O)O)CC[C@H]2Cl)cc1", "note": "(stereo partly shown) [compound 6]", "values": [{"measurement": "Ki", "setting": "EP4 receptors", "result": 1030, "unit": "nM"}, {"measurement": "EC50", "setting": "hEP3A/Gqi5", "result": 182, "unit": "nM"}]}, {"smiles": "CCCCCC(O)c1ccc([C@H]2C(=O)CC[C@@H]2CCCc2ccc(C(=O)O)s2)cc1", "note": "(stereo partly shown) [compound 2]", "values": [{"measurement": "Ca2+ Signal-EC50(nM) EP3", "setting": "hEP3A/Gqi5", "result": "notactive"}]}, {"smiles": "CCCCCC(O)c1ccc([C@@H]2[C@@H](CCCc3ccc(C(=O)O)s3)CCC2(Cl)Cl)cc1", "note": "(stereo partly shown) [compound 3]", "values": [{"measurement": "Ca2+ Signal-EC50(nM) EP3", "setting": "hEP3A/Gqi5", "result": "notactive"}]}, {"smiles": "CCCCCC(O)c1ccc([C@H]2C(=O)CC[C@@H]2CCCc2ccc(C(=O)O)s2)cc1", "note": "(stereo partly shown) [compound 1]", "values": [{"measurement": "EC50", "setting": "hEP3A/Gqi5", "result": 8780, "unit": "nM"}]}, {"smiles": "CCCCCC(O)c1ccc([C@@H]2[C@@H](C/C=C\\CCCC(=O)O)CC[C@H]2O)cc1", "note": "(stereo partly shown) [compound 7]", "values": [{"measurement": "EC50", "setting": "hEP3A/Gqi5", "result": 3480, "unit": "nM"}]}, {"smiles": "CCCCCC(O)c1ccc([C@H]2C(=O)C=C[C@@H]2CCCc2ccc(C(=O)O)s2)cc1", "note": "(stereo partly shown) [compound 11]", "values": [{"measurement": "Ki", "setting": "EP4 receptors", "result": 1940, "unit": "nM"}, {"measurement": "EC50", "setting": "hEP3A/Gqi5", "result": 4550, "unit": "nM"}]}, {"smiles": "CCCCCC(O)c1ccc([C@H]2C(=O)CC[C@@H]2C/C=C\\CCCC(=O)O)cc1", "note": "(stereo partly shown) [compound 5]", "values": [{"measurement": "Ki", "setting": "EP4 receptors", "result": 4210, "unit": "nM"}, {"measurement": "EC50", "setting": "hEP3A/Gqi5", "result": 4420, "unit": "nM"}]}]}
